Our source for the inhibition values is US8455475B2 (Gruenenthal GmbH, priority 2009, dated 2013).

For the experiment, the target named is T1, rat B1R (bradykinin receptor 1) (Rattus norvegicus, UniProt P97583).
T1 construct: expressed in transfected cells; host or cells: CHO K1 cells
T1 sequence (P97583 1-337): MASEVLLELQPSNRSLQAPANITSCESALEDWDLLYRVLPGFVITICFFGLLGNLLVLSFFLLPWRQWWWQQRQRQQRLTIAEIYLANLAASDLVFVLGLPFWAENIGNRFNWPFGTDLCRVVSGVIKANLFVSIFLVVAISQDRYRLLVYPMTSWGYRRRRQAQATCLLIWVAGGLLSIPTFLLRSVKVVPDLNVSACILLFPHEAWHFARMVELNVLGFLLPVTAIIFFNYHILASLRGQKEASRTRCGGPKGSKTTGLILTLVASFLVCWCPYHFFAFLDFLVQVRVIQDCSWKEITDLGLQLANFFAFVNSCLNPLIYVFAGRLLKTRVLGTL
As to the kind of experiment: FLIPR Ca2+ assay (Fluo-4) on CHO K1 cells stably transfected with the B1R gene of the rat (rB1R cells): % inhibition at 10 μM / IC50, agonist Des-Arg9-bradykinin. The class given is cell-based. The conditions noted are these: CHO-K1, rat B1R. The procedure: The agonistic or antagonistic action of substances can be quantified on the bradykinin receptor 1 (B1R) of the human and rat species with ectopically expressing cell lines (CHO K1 cells) and with the aid of a Ca^2+-sensitive dyestuff (Fluo-4) in a fluorescent imaging plate reader (FLIPR). The figure in % activation is based on the Ca^2+ signal after addition of Lys-Des-Arg^9-bradykinin (0.5 nM) or Des-Arg^9-bradykinin (100 nM). Antagonists lead to a suppression of the Ca^2+ inflow after addition of the agonist. % inhibition compared with the maximum achievable inhibition is stated.
The agonistic or antagonistic action of substances can be determined on the bradykinin receptor 1 (B1R) of the human and rat species with the following assay. In accordance with this assay, the Ca^2+ inflow through the channel is quantified with the aid of a Ca^2+-sensitive dyestuff (type Fluo-4, Molecular Probes Europe BV, Leiden, Holland) in a fluorescent imaging plate reader (FLIPR, Molecular Devices, Sunnyvale, USA).
Chinese hamster ovary cells (CHO K1 cells) transfected stably with the human B1R gene (hB1R cells) or the B1R gene of the rat (rB1R cells) are used. For functional studies, these cells are plated out on black 96-well plates with a clear base (BD Biosciences, Heidelberg, Germany or Greiner, Frickenhausen, Germany) in a density of 20,000-35,000 cells/well. The cells are left overnight at 37° C. and 5% CO2 in culture medium (hB1R cells: Nutrient Mixture Ham's F12, Gibco Invitrogen GmbH, Karlsruhe, Germany or DMEM, Sigma-Aldrich, Taufkirchen, Germany; rB1R cells: D-MEM/F12, Gibco Invitrogen GmbH, Karlsruhe, Germany) with 10 vol. % FBS (foetal bovine serum, Gibco Invitrogen GmbH, Karlsruhe, Germany or PAN Biotech GmbH, Aidenbach, Germany). On the following day, the cells are loaded for 60 min at 37° C. with 2.13 μM Fluo-4 (Molecular Probes Europe BV, Leiden Holland) in HBSS buffer (Hank's buffered saline solution, Gibco Invitrogen GmbH, Karlsruhe, Germany) with 2.5 mM probenecid (Sigma-Aldrich, Taufkirchen, Germany) and 10 mM HEPES (Sigma-Aldrich, Taufkirchen, Germany). The plates are then washed 2× with HBSS buffer, and HBSS buffer which additionally contains 0.1% BSA (bovine serum albumin; Sigma-Aldrich, Taufkirchen, Germany), 5.6 mM glucose and 0.05% gelatine (Merck KGaA, Darmstadt, Germany) is added. After a further incubation of 20 minutes at room temperature, the plates are inserted into the FLIPR for the Ca^2+ measurement. Alternatively, the plates are washed with buffer A (15 mM HEPES, 80 mM NaCl, 5 mM KCl, 1.2 mM CaCl2, 0.7 mM MgSO4, 2 g/l glucose, 2.5 mM probenecid), buffer A is added and the plates are loaded with 2.5 μM Fluo-4 and 0.025% Pluronic F127 (Sigma-Aldrich, Taufkirchen, Germany). Thereafter, the cells are washed 2× with buffer A and incubated for 30 minutes at room temperature with buffer A, which additionally contains 0.05% BSA and 0.05% gelatine, and thereafter inserted into the FLIPR for the Ca^2+ measurement. The Ca^2+-dependent fluorescence is measured here before and after addition of substances (λex=488 nm, λem=540 nm). Quantification is by measurement of the highest fluorescence intensity (FC, fluorescence counts) over time.
The FLIPR protocol consists of 2 additions of substance. Test substances (10 μM) are first pipetted on to the cells and the Ca^2+ inflow is compared with the control (hB1R: Lys-Des-Arg^9-bradykinin>=50 nM; rB1R: Des-Arg^9-bradykinin 10 μM). This gives the result in % activation based on the Ca^2+ signal after addition of Lys-Des-Arg^9-bradykinin (>=50 nM) or Des-Arg^9-bradykinin (10 μM). After incubation for 10-20 minutes, Lys-Des-Arg^9-bradykinin (hB1R) or Des-Arg^9-bradykinin (rB1R) in the concentration of the EC80 is applied and the inflow of Ca^2+ is likewise determined. Antagonists lead to a suppression of the Ca^2+ inflow. % inhibition compared with the maximum achievable inhibition is calculated.
For determination of the IC50 value, the substances are added in various concentrations. […]
In the case of `CC1(C)Cc2ccc(C(=O)N3CCC4(CC3)CCN(c3ccncc3)CC4)cc2C1NC(=O)c1cc(Cl)ccc1C(F)(F)F` (stereo not drawn) [IND_CC-314, 5-Chloro-N-[2,2-dimethyl-6-(9-pyridin-4-yl-3,9-diazaspiro[5.5]undecane-3-carbonyl)-1,3-dihydro-inden-1-yl]-2-(trifluoromethyl)-benzamide], the inhibition at 10 µM stood at 80%.
For `CC1(C)CC(NC(=O)c2cc(Cl)ccc2C(F)(F)F)c2cc(C(=O)N3CCC4(CC3)CCN(c3ccncc3)CC4)ccc21` (stereo not drawn) [IND_CC-315, 5-Chloro-N-[3,3-dimethyl-6-(3-pyridin-4-yl-3,9-diazaspiro[5.5]undecane-9-carbonyl)-1,2-dihydro-inden-1-yl]-2-(trifluoromethyl)-benzamide] the value was 101%; for `O=C(NC1CCc2ccc(C(=O)N3CCC4(CCN(c5ccncc5)CC4)C3)cc21)c1cc(Cl)ccc1C(F)(F)F` (stereo not drawn) [IND_CC-316, 5-Chloro-N-[6-(8-pyridin-4-yl-2,8-diazaspiro[4.5]decane-2-carbonyl)-2,3-dihydro-1H-inden-1-yl]-2-(trifluoromethyl)-benzamide], 100%.
With `Cc1ccc(C(=O)NC2c3cc(C(=O)N4CCC5(CC4)CCN(c4ccncc4)CC5)ccc3CC2(C)C)c(F)c1` (stereo not drawn) [IND_CC-317, N-[2,2-Dimethyl-6-(9-pyridin-4-yl-3,9-diazaspiro[5.5]undecane-3-carbonyl)-1,3-dihydro-inden-1-yl]-2-fluoro-4-methyl-benzamide], the inhibition at 10 µM worked out at 60%.
Next, `Cc1ccc(C(=O)NC2CC(C)(C)c3ccc(C(=O)N4CCC5(CC4)CCN(c4ccncc4)CC5)cc32)c(F)c1` (stereo not drawn) [IND_CC-318, N-[3,3-Dimethyl-6-(3-pyridin-4-yl-3,9-diazaspiro[5.5]undecane-9-carbonyl)-1,2-dihydro-inden-1-yl]-2-fluoro-4-methyl-benzamide]: 100%.
Next, `Cc1ccc(C(=O)NC2CCc3ccc(C(=O)N4CCC5(CCN(c6ccncc6)CC5)C4)cc32)c(F)c1` (stereo not drawn) [IND_CC-319, 2-Fluoro-4-methyl-N-[6-(8-pyridin-4-yl-2,8-diazaspiro[4.5]decane-2-carbonyl)-2,3-dihydro-1H-inden-1-yl]-benzamide]: 102%; `CN(C1CCc2ccc(C(=O)N3CCC4(CC3)CCN(c3ccncc3)CC4)cc21)S(=O)(=O)c1ccc(C(F)(F)F)cc1Cl` (stereo not drawn) [IND_CC-320, 2-Chloro-N-methyl-N-[6-(9-pyridin-4-yl-3,9-diazaspiro[5.5]undecane-3-carbonyl)-2,3-dihydro-1H-inden-1-yl]-4-(trifluoromethyl)-benzenesulfonic acid amide]: 83%.
Turning to `CN(C1CCc2ccc(C(=O)N3CCC4(CC3)CCN(c3ccncc3)CC4)cc21)S(=O)(=O)c1c(Cl)cccc1Cl` (stereo not drawn) [IND_CC-321, 2,6-Dichloro-N-methyl-N-[6-(9-pyridin-4-yl-3,9-diazaspiro[5.5]undecane-3-carbonyl)-2,3-dihydro-1H-inden-1-yl]-benzenesulfonic acid amide], the inhibition at 10 µM turned out to be 95%.
Next, `O=C(c1ccc2c(c1)C(NS(=O)(=O)c1c(Cl)cccc1Cl)CC2)N1CCC2(CC1)CCN(c1ccncc1)CC2` (stereo not drawn) [IND_CC-322, 2,6-Dichloro-N-[6-(9-pyridin-4-yl-3,9-diazaspiro[5.5]undecane-3-carbonyl)-2,3-dihydro-1H-inden-1-yl]-benzenesulfonic acid amide]: 102%; `O=C(c1ccc2c(c1)C(NS(=O)(=O)c1c(Cl)cccc1Cl)CC2)N1CCC2(CC1)CCN(c1ccncc1)C2` (stereo not drawn) [IND_CC-323, 2,6-Dichloro-N-[6-(2-pyridin-4-yl-2,8-diazaspiro[4.5]decane-8-carbonyl)-2,3-dihydro-1H-inden-1-yl]-benzenesulfonic acid amide]: 100%.
For `CN(C1CCc2ccc(C(=O)N3CCC4(CC3)CCN(c3ccncc3)CC4)cc21)S(=O)(=O)c1ccc(Cl)cc1Cl` (stereo not drawn) [IND_CC-324, 2,4-Dichloro-N-methyl-N-[6-(9-pyridin-4-yl-3,9-diazaspiro[5.5]undecane-3-carbonyl)-2,3-dihydro-1H-inden-1-yl]-benzenesulfonic acid amide] the value was 98%.
For `CN(C1CCc2ccc(C(=O)N3CCC4(CC3)CCN(c3ccncc3)CC4)cc21)S(=O)(=O)c1ccccc1Cl` (stereo not drawn) [IND_CC-325, 2-Chloro-N-methyl-N-[6-(9-pyridin-4-yl-3,9-diazaspiro[5.5]undecane-3-carbonyl)-2,3-dihydro-1H-inden-1-yl]-benzenesulfonic acid amide] the value was 102%.
On to `Cc1cc(F)ccc1S(=O)(=O)N(C)C1CCc2ccc(C(=O)N3CCC4(CC3)CCN(c3ccncc3)CC4)cc21` (stereo not drawn) [IND_CC-326, 4-Fluoro-N,2-dimethyl-N-[6-(9-pyridin-4-yl-3,9-diazaspiro[5.5]undecane-3-carbonyl)-2,3-dihydro-1H-inden-1-yl]-benzenesulfonic acid amide], for which the inhibition at 10 µM worked out at 100%.
For `CN(C1CCc2ccc(C(=O)N3CCC4(CC3)CCN(c3ccncc3)CC4)cc21)S(=O)(=O)c1cccc(C(F)(F)F)c1` (stereo not drawn) [IND_CC-327, N-Methyl-N-[6-(9-pyridin-4-yl-3,9-diazaspiro[5.5]undecane-3-carbonyl)-2,3-dihydro-1H-inden-1-yl]-3-(trifluoromethyl)-benzenesulfonic acid amide] the value was 101%.
Next, `O=C(c1ccc2c(c1)C(NS(=O)(=O)c1cccc(C(F)(F)F)c1)CC2)N1CCC2(CC1)CCN(c1ccncc1)CC2` (stereo not drawn) [IND_CC-328, N-[6-(9-Pyridin-4-yl-3,9-diazaspiro[5.5]undecane-3-carbonyl)-2,3-dihydro-1H-inden-1-yl]-3-(trifluoromethyl)-benzenesulfonic acid amide]: 98%.
As to `O=C(c1ccc2c(c1)C(NS(=O)(=O)c1cccc(C(F)(F)F)c1)CC2)N1CCC2(CC1)CCN(c1ccncc1)C2` (stereo not drawn) [IND_CC-329, N-[6-(2-Pyridin-4-yl-2,8-diazaspiro[4.5]decane-8-carbonyl)-2,3-dihydro-1H-inden-1-yl]-3-(trifluoromethyl)-benzenesulfonic acid amide], the inhibition at 10 µM was found to be 97%.
On to `CC1(C)Cc2ccc(C(=O)N3CCC4(CC3)CCN(c3ccncc3)CC4)cc2C1NS(=O)(=O)c1ccc(C(F)(F)F)cc1Cl` (stereo not drawn) [IND_CC-330, 2-Chloro-N-[2,2-dimethyl-6-(9-pyridin-4-yl-3,9-diazaspiro[5.5]undecane-3-carbonyl)-1,3-dihydro-inden-1-yl]-4-(trifluoromethyl)-benzenesulfonic acid amide], for which the inhibition at 10 µM turned out to be 67%.
Next, `CC1(C)CC(NS(=O)(=O)c2ccc(C(F)(F)F)cc2Cl)c2cc(C(=O)N3CCC4(CC3)CCN(c3ccncc3)CC4)ccc21` (stereo not drawn) [IND_CC-331, 2-Chloro-N-[3,3-dimethyl-6-(3-pyridin-4-yl-3,9-diazaspiro[5.5]undecane-9-carbonyl)-1,2-dihydro-inden-1-yl]-4-(trifluoromethyl)-benzenesulfonic acid amide]: 94%.

What is called inhibition is the relative decrease from the control value, in per cent.
